Measured values published in patent publication US20220331286A1, “CANNABIS LIMITS CANCER STEM CELL GROWTH IN POORLY DIFF[…]” (The Regents of the University of California, priority 2021, published 2022).
“Also recorded” adds a separate entry of the source.

Experiments:
[1] = test system: PL-12 well-differentiated pancreatic tumor cells; assay: Microscopy of cell morphology and viability; type: cell-based, human; settings: different concentrations of WIN 55,212-2; CDDP 50 μg/mL; 24 hours
[2] = test system: Oral squamous carcinoma cells (OSCCs); assay: Microscopy of cell morphology and viability; type: cell-based, human
[3] = test system: MIA PaCa-2 (MP2) poorly differentiated/stem like pancreatic tumor cells; assay: Cell death by propidium iodide staining and flow cytometry; type: cell-based, human
Text: (§1) Propidium iodide (PI) staining was used to determine the cell death by flow cytometry.

[4] = test system: PL-12 well-differentiated pancreatic tumor cells; assay: as above; type: cell-based, human; settings: WIN 55,212-2 25-100 μM, 24-48 hours
Text: as §1

[5] = test system: Oral squamous carcinoma cells (OSCCs); assay: Viable cell count (Trypan Blue) after treatment; type: cell-based, human; settings: 24 hours
Method: (§2) Oral squamous carcinoma cells (OSCCs) and oral squamous carcinoma stem cells (OSCSCs) were isolated from cancer patients with tongue tumors at UCLA. The cells were cultured in RPMI 1640 complete medium with 10% fetal bovine serum (FBS) 1.4% Antibiotic-Antimycotic, 1% sodium pyruvate, 1.4% non-essential amino acids, 1% L-glutamine, 0.2% gentamicin (Gemini Bio-Products, CA, USA), and 0.15% sodium bicarbonate (Fisher Scientific, PA, USA).
(§3) As shown in FIG. 1A-1E, OSCSCs are affected more by WIN 55,212-2 than OSCCs. Both OSCCs (oral squamous carcinoma cells) and OSCSCs (oral squamous carcinoma stem cells) were treated with various concentrations of WIN 55,212-2 (10, 25, 50, and 100 μM) and CDDP (50 μg/ml), and the cell numbers were determined after 24 hours of treatment.
(§4) RPMI 1640 (Gibco, Thermo Fisher Scientific, USA) complete medium with 10% fetal bovine serum (FBS) (Gemini Bio-Products, San Diego, Calif., USA), 1.4% of non-essential amino acid (Gibco, Thermo Fisher Scientific, USA), 1.4% sodium pyruvate (Gibco, Thermo Fisher Scientific, USA), 0,15% of sodium bicarbonate (Fisher Scientific, Waltham, Mass., USA) and 1% antibiotics/antimycotics (Gemini Bio-Products, San Diego, Calif., USA) was used for oral tumor culture. DMEM (Gibco, Thermo Fisher Scientific, USA) supplemented with 10% FBS and 1% antibiotics/antimycotics was used for pancreatic tumor cell culture. Oral squamous carcinoma cells (OSCCs) and oral squamous carcinoma stem cells (OSCSCs) were isolated from cancer patients with tongue tumor at UCLA. Human pancreatic cancer cell lines MIA PaCa-2 (MP2) and PL-12 were generously provided by Dr. Guido Eibl (UCLA David Geffen School of Medicine) and by Dr. Nicholas Cacalano (UCLA Jonsson Comprehensive Cancer Center), respectively. […] CDDP was purchased from Ronald Reagan UCLA Medical Center Pharmacy. […] TNF-α and IFN-γ were purchased from Peprotech (Rockyhill, N.J.).
(§5) The number of viable cells was counted under light microscope using Trypan Blue staining (Sigma, Mo., USA).

[6] = test system: oral squamous carcinoma stem cells (OSCSCs); assay: Viable cell count (Trypan Blue) after treatment; type: cell-based, human; settings: WIN 55,212-2 10, 25, 50, 100 μM; CDDP 50 μg/ml; 24 hours; mesylate
Method: as §2, §3, §4, §5

[7] = test system: PL-12 well-differentiated pancreatic tumor cells; settings: WIN 55,212-2, 48 h; mesylate
[8] = test system: MIA PaCa-2 (MP2) poorly differentiated/stem like pancreatic tumor cells
[9] = test system: MIA PaCa-2 (MP2) poorly differentiated/stem like pancreatic tumor cells; assay: Viable cell count (Trypan Blue) after treatment; type: cell-based, human
Text: (§6) Six different pancreatic tumor cell lines each characterized at poorly, intermediate and well differentiated stages pathologically by other laboratories previously were used to determine phenotype, susceptibility to NK cell-mediated cytotoxicity and secretion of IFN-γ directly correlating with the differentiation stages of the tumors. […] Furthermore, the stage of differentiation of the tumors was correlated with sensitivity to NK cell mediated cytotoxicity in pancreatic tumor cells. […] Therefore, a direct correlation between augmented sensitivity to NK-mediated lysis and poor differentiation of pancreatic tumors was evident from these experiments. For the following experiments MP2 and PL12 were used as representative tumor types for poorly differentiated and well differentiated tumors respectively. Human pancreatic cancer cell line MIA PaCa-2 (MP2), was provided by Dr. Guido Eibl (UCLA David Geffen School of Medicine) and PL12 was provided by Dr. Nicholas Cacalano (UCLA Jonsson Comprehensive Cancer Center). MP2 tumors were cultured with DMEM in supplement with 10% FBS and 1% Penicillin-Streptomycin (Gemini Bio-Products, CA). PL12 pancreatic tumors were cultured in RMPI 1640 medium supplemented with 10% FBS and 1% penicillin-streptomycin.
as §4, §5

[10] = test system: PL-12 well-differentiated pancreatic tumor cells; assay: Viable cell count (Trypan Blue) after treatment; type: cell-based, human
Text: as §6, §4, §5

[11] = test system: Oral squamous carcinoma cells (OSCCs); assay: Cell death by propidium iodide staining and flow cytometry; type: cell-based, human; settings: WIN 55,212-2 75 and 100 μM, 24 hours
Method: (§7) After an overnight incubation the cells were washed twice and stained with propidium iodide (PI) at a concentration of 3 μg/ml. Flow cytometric analysis was performed using Attune flow cytometer results were analyzed using FlowJo vX software (Ashland, Oreg.).

[12] = test system: oral squamous carcinoma stem cells (OSCSCs); assay: as above; type: cell-based, human
Method: as §7

tumor = assay: Cytostatic effect: tumor-cell coverage of the well-plate (FIG. 2); type: cell-based; settings: at higher concentrations (FIG. 2)
Text: In FIG. 2, the cystostatic effect of WIN 55,212-2 are shown.

[13] = test system: Oral squamous carcinoma cells (OSCCs)
[14] = test system: mouse models of breast cancer, non-small cell lung cancer, and non-melanoma skin cancer; settings: cited from earlier work
breast cancer cell lines = settings: not normal breast epithelium; cited from earlier work
[15] = test system: oral squamous carcinoma stem cells (OSCSCs)
[16] = test system: MIA PaCa-2 (MP2) poorly differentiated/stem like pancreatic tumor cells; assay: Microscopy of cell morphology and viability; type: cell-based, human; settings: different concentrations of WIN 55,212-2; CDDP 50 μg/mL; 24 hours
[17] = test system: oral squamous carcinoma stem cells (OSCSCs); assay: Microscopy of cell morphology and viability; type: cell-based, human; settings: WIN 55,212-2 even at the lowest concentrations; CDDP 50 μg/mL; 24 h
[18] = different concentrations of WIN 55,212-2, dose-dependent, 24-48 hours
[19] = WIN 55,212-2 (5-50 μM), 24 hours, vs untreated control, mesylate
[20] = various concentrations of WIN 55,212-2, 24 hours and 48 hours (FIG. 4A-4B)
[21] = WIN 55,212-2 (5-50 μM), 24 hours, mesylate

Structure (SMILES): CS(=O)(=O)O.Cc1c(C(=O)c2cccc3ccccc23)c2cccc3c2n1[C@H](CN1CCOCC1)CO3 [WIN 55,212-2, (R)-(+)-[2,3-Dihydro-5-methyl-3-(4-morpholinylmethyl)pyrrolo[1,2,3-de]-1,4-benzoxazin-6-yl]-1-naphthalenylmethanone mesylate]
- morphology/viability of PL-12 under the microscope [1]: maintained their morphology and remained viable
- morphology/viability of OSCCs under the microscope ([2]; WIN 55,212-2 50 μM or higher, CDDP 50 μg/mL, 24 h): some of the OSCCs still remained viable but some rounded up and detached and were not viable
- morphology/viability of OSCCs under the microscope ([2]; low concentrations of WIN 55,212-2, 24 h): remained viable
- percentages of dead cells, MP2 (PI staining) ([3]; WIN 55,212-2 25-100 μM, 24-48 hours): approximately 30%
- increase in cell death in MP2s compared with PL12 (PI staining) ([3]; various concentrations of WIN 55,212-2, 48 hours): greater higher increase in cell death
- percentages of dead cells, PL-12 (PI staining) [4]: up to 20%
- killing / decrease in cell numbers of OSCCs, in words ([5]; WIN 55,212-2 10, 25, 50, 100 μM, CDDP 50 μg/ml, mesylate): much less; also recorded: smaller decrease in cell numbers
- decrease in cell numbers of OSCC (viable cells) ([5]; WIN 55,212-2 10-100 μM): 10-25%
- killing / decrease in cell numbers of OSCSCs, in words [6]: significantly killed; also recorded: significantly greater than OSCCs
- CD44 cell surface expression, PL-12 [7]: decreased expressions; also recorded: Decreased cell surface expression
- CD54 cell surface expression, PL-12 [7]: decreased expressions; also recorded: decreased the expression
- CD44 cell surface expression, MP2 ([8]; WIN 55,212-2, 48 h, mesylate): decreased expressions; also recorded: Decreased cell surface expression
- CD54 cell surface expression, MP2 ([8]; WIN 55,212-2, 48 h, mesylate): decreased expressions; also recorded: decreased the expression
- MHC class I cell surface expression, MP2 ([8]; WIN 55,212-2, 48 h, mesylate): decreased expressions; also recorded: decreased on MP2
- PD-L1 (B7H1) cell surface expression, MP2 ([8]; WIN 55,212-2, 48 h, mesylate): decreased expressions; also recorded: decreased in MP2
- extent of decrease in all surface receptor expressions, MP2 compared with PL-12 ([8]; WIN 55,212-2 treatments (FIG. 17F)): significantly greater than those seen in PL-12 tumor cells
- decreased numbers of viable cells, MP2 [9, 18]: 60-85%
- percent decrease in cell numbers of MP2s, in words ([9]; various concentrations of WIN 55,212-2): significantly greater than PL12s
- decreased numbers of viable cells, PL-12 [10, 18]: 50-70%
- percent decrease in cell numbers of PL12, in words ([10]; various concentrations of WIN 55,212-2, CDDP 50 μg/ml): smaller decreases in cell numbers
- cell death in OSCCs (PI staining) [11]: up to 10%
- amounts of cell death in OSCSCs compared with those induced by CDDP ([12]; WIN 55,212-2 25-100 μM, compiled data): either similar or higher when compared to those induced by CDDP
- cell death in OSCSCs compared with OSCCs (PI staining) ([12]; all WIN 55,212-2 concentrations tested, 24 hours, mesylate): higher cell death
- cytostatic effect (fold change of the tumor-cell coverage of the well-plate) (tumor): arrests the tumor growth
- CD44 cell surface expression, OSCCs [13, 19]: Decreased expression
- CD54 cell surface expression, OSCCs [13, 19]: Decreased expression
- MHC class I cell surface expression, OSCCs [13, 19]: Decreased expression
- PD-L1 (B7H1) cell surface expression, OSCCs [13, 19]: Decreased expression
- MHC class I expression on the cell surface, OSCCs [13, 20]: decreases in MHC class I expression
- tumor burden, lung metastasis and tumor induced angiogenesis in vivo [14]: reduce tumor burden, lung metastasis and tumor induced angiogenesis
- effect on radiotherapy / anti-proliferative effects of radiation (breast cancer cell lines): synergistically increased the effects of radiotherapy
- CD44 cell surface expression, OSCSCs [15, 21]: decreased expressions
- CD54 cell surface expression, OSCSCs [15, 21]: decreased expressions
- PD-L1 (B7H1) cell surface expression, OSCSCs [15, 21]: decreased expressions
- MHC class I expression on the cell surface, OSCSCs [15, 20]: decreases in MHC class I expression
- morphology/viability of MP2 under the microscope [16]: largely lost their shape and morphology, and had detached from the plates
- morphology/attachment of OSCSCs under the microscope [17]: became detached from the culture plates
